Laboratory results published in US20240336657A1, “G-ALPHA-S PEPTIDE INHIBITORS AND USES THEREOF” (The Regents of the University of California, priority 2021, published 2024).
Positions of bridges follow the written chain, without caps; N, C: chain ends. Non-standard residues stand in square brackets, D forms with d. Residues, ends and D or L forms follow the SMILES beside them.

Tests used:
adenylyl cyclase = molecular target: T1, adenylyl cyclase (Homo sapiens, UniProt O95622+Q08462); test: Forskolin-mediated, Gαs-independent adenylyl cyclase activation; type: biochemical
T1 construct: C1 domain (residues 442-658, VC1) of human ADCY5; C2 domain (residues 871-1082, IIC2) of human ADCY2; made in house; host or cells: Escherichia coli BL21(DE3)
T1 sequence (O95622 442-658): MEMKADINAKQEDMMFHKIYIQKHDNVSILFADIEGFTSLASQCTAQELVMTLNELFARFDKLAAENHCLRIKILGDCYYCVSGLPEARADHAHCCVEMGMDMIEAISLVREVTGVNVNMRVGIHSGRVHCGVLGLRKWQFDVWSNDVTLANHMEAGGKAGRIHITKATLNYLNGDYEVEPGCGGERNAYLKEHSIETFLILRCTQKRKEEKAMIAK
T1 sequence (Q08462 871-1082): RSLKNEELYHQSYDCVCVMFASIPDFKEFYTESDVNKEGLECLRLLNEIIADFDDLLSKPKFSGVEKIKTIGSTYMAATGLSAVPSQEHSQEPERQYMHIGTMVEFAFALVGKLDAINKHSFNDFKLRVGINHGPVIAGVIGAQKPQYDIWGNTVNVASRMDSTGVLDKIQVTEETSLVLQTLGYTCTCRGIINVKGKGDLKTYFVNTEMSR

Gαs S275L = Gαs S275L (Homo sapiens, UniProt P63092, S275L); test: Adenylyl cyclase activity assay in membranes of GNAS KO HEK293 cells transfected with Gαs S275L; type: biochemical; design: expressed in transfected cells; host or cells: GNAS KO HEK293 cells (membranes); details: Gαs S275L reintroduced
Gαs S275L, sequence (P63092 whole entry S275L): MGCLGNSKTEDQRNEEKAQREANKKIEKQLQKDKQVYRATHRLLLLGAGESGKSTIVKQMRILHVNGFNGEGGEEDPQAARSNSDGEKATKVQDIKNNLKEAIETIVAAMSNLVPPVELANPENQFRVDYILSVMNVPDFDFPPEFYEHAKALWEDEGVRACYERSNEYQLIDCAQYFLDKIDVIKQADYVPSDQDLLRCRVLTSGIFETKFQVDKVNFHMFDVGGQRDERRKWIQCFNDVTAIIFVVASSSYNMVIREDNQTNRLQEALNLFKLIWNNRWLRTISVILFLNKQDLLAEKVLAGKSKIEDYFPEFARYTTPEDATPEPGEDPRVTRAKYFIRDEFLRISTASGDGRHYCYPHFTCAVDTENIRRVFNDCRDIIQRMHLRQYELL
Description: To further assess the cellular specificity of GN13, we designed a GN13-resistant Gαs mutant based on structural analysis. […] We reasoned that mutating this serine residue to a bulky residue should create a drug-resistant Gαs mutant that blocks the GN13-Gαs interaction but would have little effect on adenylyl cyclase activation. […] By contrast, when the drug resistant mutant Gαs S275L was reintroduced into GNAS KO cells, the inhibitory effect of GN13 was abolished (FIG. 3I), providing further evidence that the observed pharmacological activity is due to GN13 binding to the switch II/α3 pocket in Gαs.
GN13 inhibition of Gαs proteins in HEK293 cell membranes (FIG. 17F and FIG. 18F).
a. Cell membrane preparation: HEK293cells, GNAS KO HEK293 cells were plated two day before transfection at a density of 1M cells per 10 cm plate. […] The protein concentrations were measured using BCA, and were normalized to 750 μg/mL. […] The cAMP concentrations were measured by the LANCE Ultra cAMP kit. […]
A cAMP standard curve was generated in the same plate using the 50 μM cAMP standard in the kit. […] 10 μL of each diluted sample was mixed with 5 μL of 4× Eu-cAMP tracer and 5 μL of 4× ULight-anti-cAMP in a white, opaque Optiplate-384 microplate, incubated for 1 hour at room temperature, and the time-resolved fluorescence resonance energy transfer (TR-FRET) signals were read on a Spark 20M plate reader. […]

## CC[C@H](C)[C@@H]1NC(=O)[C@H](C)NC(=O)[C@H](Cc2ccc(O)cc2)NC(=O)[C@H](C(C)C)NC(=O)[C@H](CO)NC(=O)[C@H](CCC(=O)O)NC(=O)[C@H](Cc2ccccc2)NC(=O)[C@@H](Cc2ccc(O)cc2)NC(=O)CSC[C@@H](C(=O)NCC(N)=O)NC(=O)[C@H](CC(C)C)NC(=O)[C@H]([C@@H](C)O)NC(=O)CNC(=O)[C@H](Cc2c[nH]c3ccccc23)NC1=O [GN13] ({CH2CO}-[dY]FESVYAIWGTLCG-NH2; thioether N-13)
Adenylyl cyclase
  inhibition of forskolin-mediated, Gαs-independent adenylyl cyclase activation: did not inhibit
Gαs S275L
  inhibition of isoproterenol-mediated cAMP production in cell membranes: abolished
